Source: patent publication US20070049593A1 (priority 2004, published 2007)
Where a name gives a salt, the structure may show the parent alone.

Target: T1, HCV polymerase (Hepatitis C virus genotype 1b, UniProt P26663)
T1 construct: a region encoding NS5B (J Virol 1991 March, 65(3), 1105-13, 544 amino acids after deletion of 47 amino acids on the C-terminal); 6xHis (C); made in house; host or cells: Escherichia coli
Experiment: biochemical
Parameters: species or system HCV BK strain
Settings: not given
Summary of the method: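 Recombinant HCV BK-strain NS5B (C-terminal 47 aa deleted, His6-tagged, E. coli), 0.5 μg/ml, run with 5 μg/ml in vitro-transcribed RNA template (polyU/3′X), ATP/GTP/CTP 50 μM, UTP 2 μM plus [3H]UTP, pH 7.5, 25° C, 90 min. TCA-precipitated RNA counted by scintillation; IC50 from activity with vs without compound.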

T1 sequence (P26663 2420-2963): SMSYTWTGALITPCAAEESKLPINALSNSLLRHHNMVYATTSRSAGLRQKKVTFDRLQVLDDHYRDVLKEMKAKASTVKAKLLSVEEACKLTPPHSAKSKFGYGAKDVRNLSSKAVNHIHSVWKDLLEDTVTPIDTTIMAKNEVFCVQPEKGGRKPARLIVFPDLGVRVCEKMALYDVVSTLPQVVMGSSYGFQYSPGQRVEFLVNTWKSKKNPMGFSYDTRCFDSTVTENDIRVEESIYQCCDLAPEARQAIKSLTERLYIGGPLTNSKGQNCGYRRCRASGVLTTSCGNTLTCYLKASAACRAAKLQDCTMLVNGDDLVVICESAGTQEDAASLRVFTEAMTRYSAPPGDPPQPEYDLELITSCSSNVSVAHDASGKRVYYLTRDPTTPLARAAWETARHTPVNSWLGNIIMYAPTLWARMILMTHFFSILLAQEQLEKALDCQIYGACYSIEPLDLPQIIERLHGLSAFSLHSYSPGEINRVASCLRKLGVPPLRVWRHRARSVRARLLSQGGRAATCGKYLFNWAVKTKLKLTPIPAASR

SMILES	IC50 [µM]
O=C(O)c1ccc2c(C3CCCCC3)c3n(c2c1)CCN(Cc1ccncc1)c1ccccc1-3 [Example 1-134, 13-cyclohexyl-5-(pyridin-4-ylmethyl)-6,7-dihydro-5H-benzo[5,6][1,4]diazepino[7,1-a]indole-10-carboxylic acid dihydrochloride]	< 0.1
O=C(O)c1ccc2c(C3CCCCC3)c3n(c2c1)CCN(Cc1cccnc1)c1ccccc1-3 [Example 1-135, 13-cyclohexyl-5-(pyridin-3-ylmethyl)-6,7-dihydro-5H-benzo[5,6][1,4]diazepino[7,1-a]indole-10-carboxylic acid dihydrochloride]	< 0.1
O=C(O)c1ccc2c(C3CCCCC3)c3n(c2c1)CCN(CC(=O)N1CC=CCC1)c1ccccc1-3 [Example 1-136, 13-cyclohexyl-5-[2-(3,6-dihydro-2H-pyridin-1-yl)-2-oxoethyl]-6,7-dihydro-5H-benzo[5,6][1,4]diazepino[7,1-a]indole-10-carboxylic acid]	< 0.1
CC1CCCCN1C(=O)CN1CCn2c(c(C3CCCCC3)c3ccc(C(=O)O)cc32)-c2ccccc21 (centres unmarked) [Example 1-137, 13-cyclohexyl-5-[2-(2-methylpiperidin-1-yl)-2-oxoethyl]-6,7-dihydro-5H-benzo[5,6][1,4]diazepino[7,1-a]indole-10-carboxylic acid]	< 0.1
O=C(O)c1ccc2c(C3CCCCC3)c3n(c2c1)CCN(CC(=O)N1CCc2ccccc2C1)c1ccccc1-3 [Example 1-138, 13-cyclohexyl-5-[2-(3,4-dihydro-1H-isoquinolin-2-yl)-2-oxoethyl]-6,7-dihydro-5H-benzo[5,6][1,4]diazepino[7,1-a]indole-10-carboxylic acid monohydrochloride]	< 0.1
O=C(O)c1ccc2c(C3CCCCC3)c3n(c2c1)CCN(CC(=O)N1CCCC2CCCCC21)c1ccccc1-3 (centres unmarked) [Example 1-139, 13-cyclohexyl-5-[2-(octahydroquinolin-1-yl)-2-oxoethyl]-6,7-dihydro-5H-benzo[5,6][1,4]diazepino[7,1-a]indole-10-carboxylic acid monohydrochloride]	< 0.1
O=C(O)c1ccc2c(C3CCCCC3)c3n(c2c1)CCN(CC(=O)N1Cc2ccccc2C1)c1ccccc1-3 [Example 1-140, 13-cyclohexyl-5-[2-(1,3-dihydroisoindol-2-yl)-2-oxoethyl]-6,7-dihydro-5H-benzo[5,6][1,4]diazepino[7,1-a]indole-10-carboxylic acid monohydrochloride]	< 0.1
O=C(O)c1ccc2c(C3CCCCC3)c3n(c2c1)CCN(CC(=O)N1CCC2CCCCC2C1)c1ccccc1-3 (centres unmarked) [Example 1-141, 13-cyclohexyl-5-[2-(octahydroisoquinolin-2-yl)-2-oxoethyl]-6,7-dihydro-5H-benzo[5,6][1,4]diazepino[7,1-a]indole-10-carboxylic acid monohydrochloride]	< 0.1
O=C(O)c1ccc2c(C3CCCCC3)c3n(c2c1)CCN(CCN1CCc2ccccc2C1)c1ccccc1-3 [Example 1-142, 13-cyclohexyl-5-[2-(3,4-dihydro-1H-isoquinolin-2-yl)ethyl]-6,7-dihydro-5H-benzo[5,6][1,4]diazepino[7,1-a]indole-10-carboxylic acid dihydrochloride]	< 0.1
CC1CCCN(CCN2CCn3c(c(C4CCCCC4)c4ccc(C(=O)O)cc43)-c3ccccc32)C1 (centres unmarked) [Example 1-143, 13-cyclohexyl-5-[2-(3-methylpiperidin-1-yl)ethyl]-6,7-dihydro-5H-benzo[5,6][1,4]diazepino[7,1-a]indole-10-carboxylic acid dihydrochloride]	< 0.1

Same assay, conditions: read-out: HCV polymerase inhibitory activity IC50; 25° C., 90 min; [5,6-3H]UTP incorporation into RNA

SMILES	IC50 [µM]
CCN1CCC(CN2CCn3c(c(C4CCCCC4)c4ccc(C(=O)O)cc43)-c3ccccc32)CC1 [Example 1-133, 13-cyclohexyl-5-(1-ethylpiperidin-4-ylmethyl)-6,7-dihydro-5H-benzo[5,6][1,4]diazepino[7,1-a]indole-10-carboxylic acid dihydrochloride]	< 0.1
